BigSolDB 2.1

CC(=O)N1CCN(c2ccc(O)cc2)CC1
solubility (mole fraction)
Conditions	283.15 K	288.15 K	293.15 K	298.15 K	303.15 K	308.15 K	313.15 K	318.15 K	323.15 K
in 2-butoxyethanol	0.00309	0.00373	0.00457	0.00537	0.00617	0.00726	0.00852	0.0102	0.0118
in 2-ethoxyethanol	0.00486	0.0059	0.00705	0.00829	0.00963	0.0112	0.0134	0.0156	0.0179
in 2-methoxyethanol	0.00715	0.00822	0.00968	0.0114	0.0133	0.0153	0.0181	0.0212	0.0242
in 2-propoxyethanol	0.00403	0.00474	0.00574	0.00686	0.00813	0.00951	0.011	0.0128	0.015
in acetonitrile	0.001	0.00124	0.0015	0.00181	0.00217	0.00259	0.00304	0.00359	0.00433
in ethanol	0.00218	0.00273	0.00328	0.00396	0.00467	0.00551	0.00634	0.00749	0.00887
in ethylene glycol	0.000479	0.000658	0.000921	0.00123	0.00167	0.00225	0.00293	0.00405	0.00538
in isobutanol	0.00108	0.00141	0.00172	0.00214	0.00251	0.00292	0.00353	0.00415	0.00508
in isopropanol	0.00132	0.00165	0.00204	0.00263	0.00327	0.00418	0.00526	0.00636	0.00796
in methanol	0.00286	0.00346	0.00411	0.00485	0.00581	0.00679	0.00806	0.00952	0.0111
in n-butanol	0.00119	0.00151	0.00186	0.00232	0.00298	0.00392	0.00488	0.00612	0.00765
in n-propanol	0.00179	0.00206	0.00238	0.00306	0.00372	0.00459	0.00561	0.00683	0.00829
